In patent US20230365561A1, “BETA-LACTAMASE INHIBITORS AND THEIR PREPARATION” (NINGXIA ACADEMY OF AGRICUL TURE AND FORESTRY SCIENCES, priority 2020, published 2023):
Structures can show the parent of a compound that is named as a salt. Where two headings read alike, the source gives them in different places.

Legend:
Type in all cases: cell-based
[1] = tested on: E. cloacae 700323 (strain 6); assay: MIC by broth microdilution (alone and in combination with meropenam), strain 6; settings: Enterobacter cloacae, compound alone
How it was run: (§1)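 Meropenem was diluted two-fold (0.125-64 mg/L final) in cation-adjusted Mueller-Hinton Broth II, with or without a constant 4 µg/mL of test compound. Bacteria were added at roughly 5x10^5 CFU/mL, plates incubated 37° C for 18-24 h, and growth inspected visually for the MIC.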

[2] = tested on: E. cloacae clinical isolate (strain 5); assay: MIC by broth microdilution (alone and in combination with meropenam), strain 5; settings: Enterobacter cloacae, compound alone
How it was run: as §1

[3] = tested on: K. pneumoniae clinical isolate (strain 3); assay: MIC by broth microdilution (alone and in combination with meropenam), strain 3; settings: Klebsiella pneumoniae, compound alone
How it was run: as §1

[4] = tested on: P. aeruginosa 9027 (strain 10); assay: MIC by broth microdilution (alone and in combination with meropenam), strain 10; settings: Pseudomonas aeruginosa, compound alone
How it was run: as §1

[5] = tested on: K. pneumoniae 700603 (strain 4); assay: MIC by broth microdilution (alone and in combination with meropenam), strain 4; settings: Klebsiella pneumoniae, compound alone
How it was run: as §1

[6] = tested on: A. baumannii 19606 (strain 8); assay: MIC by broth microdilution (alone and in combination with meropenam), strain 8; settings: Acinetobacter baumannii, compound alone
How it was run: as §1

[7] = tested on: E. coli 8739 (strain 2); assay: MIC by broth microdilution (alone and in combination with meropenam), strain 2; settings: Escherichia coli, compound alone
How it was run: as §1

[8] = tested on: P. aeruginosa clinical isolate (strain 9); assay: MIC by broth microdilution (alone and in combination with meropenam), strain 9; settings: Pseudomonas aeruginosa, compound alone
How it was run: as §1

[9] = tested on: A. baumannii clinical isolate (strain 7); assay: MIC by broth microdilution (alone and in combination with meropenam), strain 7; settings: Acinetobacter baumannii, compound alone
How it was run: as §1

[10] = tested on: E. coli clinical isolate (strain 1); assay: MIC by broth microdilution (alone and in combination with meropenam), strain 1; settings: Escherichia coli, compound alone
How it was run: as §1

[11] = read-out: MIC, antibacterial activity of example alone

Measured: MIC

N=C(N)NCCC(=O)NC(=N)[C@@H]1CC[C@@H]2CN1C(=O)N2OS(=O)(=O)O [Ex.51, (2S,5R)-2-(N-(3-guanidinopropanoyl)carbamimidoyl)-7-oxo-1,6-diazabicyclo[3.2.1]octan-6-yl Hydrogen Sulfate]
> 64 µg/mL: [1]; read-out: MIC | [2]; read-out: MIC | [3]; read-out: MIC | [4]; read-out: MIC | [5]; read-out: MIC | [6]; read-out: MIC | [7]; read-out: MIC | [8]; read-out: MIC | [9]; read-out: MIC | [10]; read-out: MIC

CC(=O)NC1CCC(C(=O)NC(=N)[C@@H]2CC[C@@H]3CN2C(=O)N3OS(=O)(=O)[O-])CC1.[Na+] (stereo partly drawn) [Ex.40, Sodium (2S,5R)-2-(N-(4-acetamidocyclohexane-1-carbonyl)carbamimidoyl)-7-oxo-1,6-diazabicyclo[3.2.1]octan-6-yl Sulfate]
> 64 µg/mL: [1]; [11] | [2]; [11] | [3]; [11] | [4]; [11] | [5]; [11] | [6]; [11] | [7]; [11] | [8]; [11] | [9]; [11] | [10]; [11]

CC(=O)N1CCCC[C@@H]1C(=O)NC(=N)[C@@H]1CC[C@@H]2CN1C(=O)N2OS(=O)(=O)[O-].[Na+] [Ex.46, Sodium (2S,5R)-2-(N-((R)-1-acetylpiperidine-2-carbonyl)carbamimidoyl)-7-oxo-1,6-diazabicyclo[3.2.1]octan-6-yl Sulfate]
> 64 µg/mL: [1]; read-out: MIC | [2]; read-out: MIC | [3]; read-out: MIC | [4]; read-out: MIC | [5]; read-out: MIC | [6]; read-out: MIC | [7]; read-out: MIC | [8]; read-out: MIC | [9]; read-out: MIC | [10]; read-out: MIC

N=C(NC(=O)CC1CCCCC1)[C@@H]1CC[C@@H]2CN1C(=O)N2OS(=O)(=O)[O-].[Na+] [Ex.36, Sodium (2S,5R)-2-(N-(2-cyclohexylacetyl)carbamimidoyl)-7-oxo-1,6-diazabicyclo[3.2.1]octan-6-yl Sulfate]
> 64 µg/mL: [1]; [11] | [2]; [11] | [3]; [11] | [4]; [11] | [5]; [11] | [6]; [11] | [7]; [11] | [8]; [11] | [9]; [11] | [10]; [11]

N=C(NC(=O)C1CCCCC1)[C@@H]1CC[C@@H]2CN1C(=O)N2OS(=O)(=O)[O-].[Na+] [Ex.37, Sodium (2S,5R)-2-(N-(cyclohexanecarbonyl)carbamimidoyl)-7-oxo-1,6-diazabicyclo[3.2.1]octan-6-yl Sulfate]
> 64 µg/mL: [1]; [11] | [2]; [11] | [3]; [11] | [4]; [11] | [5]; [11] | [6]; [11] | [7]; [11] | [8]; [11] | [9]; [11] | [10]; [11]

N=C(NC(=O)c1ccco1)[C@@H]1CC[C@@H]2CN1C(=O)N2OS(=O)(=O)O [Ex.1, (2S,5R)-2-(N-(furan-2-carbonyl)carbamimidoyl)-7-oxo-1,6-diazabicyclo[3.2.1]octan-6-yl Hydrogen Sulfate]
> 64 µg/mL: [1]; [11] | [2]; [11] | [3]; [11] | [4]; [11] | [5]; [11] | [6]; [11] | [7]; [11] | [8]; [11] | [9]; [11] | [10]; [11]

N=C(NC(=O)c1cccnc1)[C@@H]1CC[C@@H]2CN1C(=O)N2OS(=O)(=O)O [Ex.5, (2S,5R)-2-(N-nicotinoylcarbamimidoyl)-7-oxo-1,6-diazabicyclo[3.2.1]octan-6-yl Hydrogen Sulfate]
> 64 µg/mL: [1]; [11] | [2]; [11] | [3]; [11] | [4]; [11] | [5]; [11] | [6]; [11] | [7]; [11] | [8]; [11] | [9]; [11] | [10]; [11]

CN1CC[C@H](C(=O)NC(=N)[C@@H]2CC[C@@H]3CN2C(=O)N3OS(=O)(=O)[O-])C1.[Na+] [Ex.32, Sodium (2S,5R)-2-(N-((S)-1-methylpyrrolidine-3-carbonyl)carbamimidoyl)-7-oxo-1,6-diazabicyclo[3.2.1]octan-6-yl Sulfate]
> 64 µg/mL: [1]; [11] | [2]; [11] | [3]; [11] | [4]; [11] | [5]; [11] | [6]; [11] | [7]; [11] | [8]; [11] | [9]; [11] | [10]; [11]
